Data reported in ChEMBL document CHEMBL3397025, “Guanine-based amphiphiles: synthesis, ion transport properties and biological activity” (Bioorg Med Chem, 2015).

Tests used:
[1] = Ionophoric activity in large unilamellar vesicles containing 95:5 egg phosphatidylcholine and egg phosphatidylglycerol assessed as fluorescence emission at 25 degC after 10 mins by HPTS assay in presence of Na+; type: ADME
[2] = Ionophoric activity in large unilamellar vesicles containing 95:5 egg phosphatidylcholine and egg phosphatidylglycerol assessed as fluorescence emission at 25 degC after 10 mins by HPTS assay in presence of Cl-; type: ADME
[3] = Ionophoric activity in large unilamellar vesicles containing 95:5 egg phosphatidylcholine and egg phosphatidylglycerol assessed as fluorescence emission at 25 degC after 10 mins by HPTS assay in presence of F-; type: ADME
[4] = Ionophoric activity in large unilamellar vesicles containing 95:5 egg phosphatidylcholine and egg phosphatidylglycerol assessed as fluorescence emission at 25 degC after 10 mins by HPTS assay in presence of K+; type: ADME
[5] = Ionophoric activity in large unilamellar vesicles containing 95:5 egg phosphatidylcholine and egg phosphatidylglycerol assessed as fluorescence emission at 25 degC after 10 mins by HPTS assay in presence of I-; type: ADME
[6] = Ionophoric activity in large unilamellar vesicles containing 95:5 egg phosphatidylcholine and egg phosphatidylglycerol assessed as fluorescence emission at 25 degC after 10 mins by HPTS assay in presence of Li+; type: ADME
[7] = Ionophoric activity in large unilamellar vesicles containing 95:5 egg phosphatidylcholine and egg phosphatidylglycerol assessed as fluorescence emission at 25 degC after 10 mins by HPTS assay in presence of Rb+; type: ADME
MCF7 = experiment: Cytotoxicity against human MCF7 cells assessed as cell viability after 48 hrs by MTT assay; type: functional, cell-based; details: MCF7, 48 h
[8] = Cytotoxicity against human SH-SY5Y cells assessed as cell viability after 48 hrs by MTT assay; type: functional, cell-based
HaCaT = experiment: Cytotoxicity against human HaCaT cells assessed as cell viability after 48 hrs by MTT assay; type: functional, cell-based
DU-145 = experiment: Cytotoxicity against human DU145 cells assessed as cell viability after 48 hrs by MTT assay; type: functional, cell-based; details: DU-145, 48 h
[9] = Ionophoric activity in large unilamellar vesicles containing 95:5 egg phosphatidylcholine and egg phosphatidylglycerol assessed as fluorescence emission at 25 degC after 10 mins by HPTS assay in presence of Br-; type: ADME
[10] = Ionophoric activity in large unilamellar vesicles containing 95:5 egg phosphatidylcholine and egg phosphatidylglycerol assessed as fluorescence emission at 25 degC after 10 mins by HPTS assay in presence of Cs+; type: ADME

| Activity [1] | Activity [2] | Activity [3] | Activity [4] | Activity [5] | Activity [6] | Activity [7] | Activity [9] | Activity [10] | Compound | IC50 (MCF7) | IC50 [8] | IC50 (HaCaT) | IC50 (DU-145) |
| --- | --- | --- | --- | --- | --- | --- | --- | --- | --- | --- | --- | --- | --- |
| Active | Active | Active | Active | Active | Active | Active | Active | Active | Nc1nc2c(ncn2C(=O)CCC(=O)OC[C@H]2O[C@H](O[C@H]3O[C@H](CO)[C@@H](O)[C@H](O)[C@H]3O)[C@H](O)[C@@H](O)[C@@H]2O)c(=O)[nH]1 | 1 µM | 5 µM | 80 µM | 25 µM |
| – | – | – | – | – | – | – | – | – | CCCCCCCCCCCCCC(=O)O[C@@H]1[C@H](OC(=O)CCCCCCCCCCCCC)[C@@H](COC(=O)CCC(=O)OC[C@H]2O[C@H](O[C@H]3O[C@H](CO)[C@@H](O)[C@H](O)[C@H]3O)[C@H](O)[C@@H](O)[C@@H]2O)O[C@H]1n1cnc2c(=O)[nH]c(N)nc21 | – | 17 µM | – | – |
| Not Active | – | – | Not Active | – | – | – | – | – | COCCOCCOCCn1cnc2c(=O)[nH]c(N)nc21 | > 100 µM | > 100 µM | > 100 µM | > 100 µM |
